In patent US7998987B2, “Inhibitors of c-Met and uses thereof” (Vertex Pharmaceuticals Incorporated, priority 2005, dated 2011):
Read-outs that look alike come from different tables or passages of the source.

Biological target: c-Met (Homo sapiens, UniProt P08581)
Assay: Ki determination for the inhibition of c-Met kinase activity (standard coupled enzyme system)
Format: biochemical
Conditions: coupled enzyme system, 200 μM ATP, 80 nM c-Met, 30° C., read-out: c-Met Ki
Protocol: Ki Determination for the Inhibition of c-Met
Reactions were carried out in a solution containing 100 mM HEPES (pH 7.5), 10 mM MgCl2, 25 mM NaCl, 300 μM NADH, 1 mM DTT, and 1.5% DMSO. Final substrate concentrations in the assay were 200 μM ATP (Sigma Chemicals, St Louis, Mo.) and 10 μM polyGluTyr (Sigma Chemical Company, St. Louis). Reactions were carried out at 30° C. and 80 nM c-Met. Final concentrations of the components of the coupled enzyme system were 2.5 mM phosphoenolpyruvate, 300 μM NADH, 30 μg/ml pyruvate kinase and 10 μg/ml lactate dehydrogenase.
An assay stock buffer solution was prepared containing all of the reagents listed above with the exception of ATP and a test compound of the present invention. […] The reaction was initiated by the addition of 20 μL of ATP (final concentration 200 μM). Rates of reaction were obtained using a Molecular Devices Spectramax plate reader (Sunnyvale, Calif.) over 10 minutes at 30° C. The Ki values were determined from the rate data as a function of inhibitor concentration.

c-Met, sequence (P08581 25-1390): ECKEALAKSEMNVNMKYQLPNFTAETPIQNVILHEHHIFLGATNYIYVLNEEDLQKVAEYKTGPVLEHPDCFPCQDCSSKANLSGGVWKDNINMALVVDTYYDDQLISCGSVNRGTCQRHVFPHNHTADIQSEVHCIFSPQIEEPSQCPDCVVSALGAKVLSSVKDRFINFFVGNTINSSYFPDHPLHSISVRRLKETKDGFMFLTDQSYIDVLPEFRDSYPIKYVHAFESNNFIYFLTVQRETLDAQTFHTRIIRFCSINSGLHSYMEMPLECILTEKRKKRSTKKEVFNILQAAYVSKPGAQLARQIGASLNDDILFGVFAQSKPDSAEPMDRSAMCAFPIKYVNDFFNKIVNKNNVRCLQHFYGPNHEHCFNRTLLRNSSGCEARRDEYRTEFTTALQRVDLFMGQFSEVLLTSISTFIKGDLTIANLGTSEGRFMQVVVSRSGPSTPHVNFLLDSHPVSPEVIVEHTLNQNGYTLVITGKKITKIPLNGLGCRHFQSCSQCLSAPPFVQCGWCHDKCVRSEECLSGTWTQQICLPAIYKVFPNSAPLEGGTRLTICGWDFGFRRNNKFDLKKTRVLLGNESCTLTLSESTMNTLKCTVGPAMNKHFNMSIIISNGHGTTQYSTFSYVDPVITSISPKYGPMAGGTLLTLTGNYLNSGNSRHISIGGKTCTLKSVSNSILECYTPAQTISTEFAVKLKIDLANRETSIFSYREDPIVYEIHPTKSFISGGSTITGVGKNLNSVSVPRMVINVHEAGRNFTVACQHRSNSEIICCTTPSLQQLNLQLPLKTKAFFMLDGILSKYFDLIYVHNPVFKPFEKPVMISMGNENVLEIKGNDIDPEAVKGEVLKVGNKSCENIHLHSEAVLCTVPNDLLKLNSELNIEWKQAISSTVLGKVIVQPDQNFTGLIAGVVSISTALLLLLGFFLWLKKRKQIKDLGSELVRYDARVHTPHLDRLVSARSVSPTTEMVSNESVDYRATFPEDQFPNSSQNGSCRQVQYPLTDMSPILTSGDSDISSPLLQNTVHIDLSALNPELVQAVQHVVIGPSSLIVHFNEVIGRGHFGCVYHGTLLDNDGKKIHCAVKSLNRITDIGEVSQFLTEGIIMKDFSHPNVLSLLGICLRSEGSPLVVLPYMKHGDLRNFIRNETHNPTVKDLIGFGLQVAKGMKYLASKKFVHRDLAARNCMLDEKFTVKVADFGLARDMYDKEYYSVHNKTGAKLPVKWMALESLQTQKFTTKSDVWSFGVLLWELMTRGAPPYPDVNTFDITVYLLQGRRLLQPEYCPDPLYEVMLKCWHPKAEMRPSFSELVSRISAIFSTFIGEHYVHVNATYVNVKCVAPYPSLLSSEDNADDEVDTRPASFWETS

Ki (10 μM polyGluTyr)	Ki	SMILES
100 to 2000 nM		Cc1cc(C)cc(Nc2ccc3nnc(Cc4ccc5c(c4)OCO5)n3n2)c1 [Compound 248]
> 2000 nM		Cc1cc(C)cc(Nc2ccc3nnc(Cc4ccncc4)n3n2)c1 [Compound 249]
< 100 nM		Oc1ccc(Cc2nnc3ccc(Nc4cc(F)cc(F)c4)nn23)cc1 [Compound 250]
< 100 nM		Oc1ccc(Cc2nnc3ccc(Nc4cc(F)cc(F)c4)nn23)cc1Cl [Compound 251]
< 100 nM		COc1ccc(Cc2nnc3ccc(Nc4cc(F)cc(F)c4)nn23)cc1 [Compound 252]
< 100 nM		Fc1cc(F)cc(Nc2ccc3nnc(Cc4ccc5c(c4)OCO5)n3n2)c1 [Compound 253]
100 to 2000 nM		Fc1cc(F)cc(Nc2ccc3nnc(Cc4ccncc4)n3n2)c1 [Compound 254]
< 100 nM		CC(O)c1cccc(Nc2ccc3nnc(Cc4ccc(O)cc4)n3n2)c1 (stereo not shown) [Compound 255]
100 to 2000 nM		CC(O)c1cccc(Nc2ccc3nnc(Cc4ccc(O)c(F)c4)n3n2)c1 (stereo not shown) [Compound 256]
100 to 2000 nM		COc1ccc(Cc2nnc3ccc(Nc4cccc(C(C)O)c4)nn23)cc1 (stereo not shown) [Compound 257]
100 to 2000 nM		CC(O)c1cccc(Nc2ccc3nnc(Cc4ccc5c(c4)OCO5)n3n2)c1 (stereo not shown) [Compound 258]
< 100 nM		OCc1cccc(Nc2ccc3nnc(Cc4ccc(O)cc4)n3n2)c1 [Compound 259]
100 to 2000 nM		OCc1cccc(Nc2ccc3nnc(Cc4ccc(O)c(F)c4)n3n2)c1 [Compound 260]
100 to 2000 nM		OCc1cccc(Nc2ccc3nnc(Cc4ccc(O)c(Cl)c4)n3n2)c1 [Compound 261]
100 to 2000 nM		COc1ccc(Cc2nnc3ccc(Nc4cccc(CO)c4)nn23)cc1 [Compound 262]
100 to 2000 nM		OCc1cccc(Nc2ccc3nnc(Cc4ccc5c(c4)OCO5)n3n2)c1 [Compound 263]
< 100 nM		OCCc1cccc(Nc2ccc3nnc(Cc4ccc(O)cc4)n3n2)c1 [Compound 264]
100 to 2000 nM		OCCc1cccc(Nc2ccc3nnc(Cc4ccc(O)c(F)c4)n3n2)c1 [Compound 265]
100 to 2000 nM		COc1ccc(Cc2nnc3ccc(Nc4cccc(CCO)c4)nn23)cc1 [Compound 266]
100 to 2000 nM		COc1ccc(CNc2ccc3nnc(Cc4ccc(O)cc4)n3n2)cc1 [Compound 267]
100 to 2000 nM		Oc1ccc(Cc2nnc3ccc(NCc4cccc(F)c4)nn23)cc1 [Compound 268]
100 to 2000 nM		Oc1ccc(Cc2nnc3ccc(NC4CCCC4)nn23)cc1 [Compound 269]

Ki (10 μM polyGluTyr)	Ki	SMILES
100 to 2000 nM		CC1CCCC(Nc2ccc3nnc(Cc4ccc(O)cc4)n3n2)C1C (stereo not shown) [Compound 270]
100 to 2000 nM		CC1CCC(Nc2ccc3nnc(Cc4ccc(O)cc4)n3n2)CC1 (stereo not shown) [Compound 271]
100 to 2000 nM		Oc1ccc(Cc2nnc3ccc(N[C@H]4CC[C@H](O)CC4)nn23)cc1 [Compound 272]
100 to 2000 nM		Oc1ccc(Cc2nnc3ccc(NC4CCN(Cc5ccccc5)C4)nn23)cc1 (stereo not shown) [Compound 273]
100 to 2000 nM		Oc1ccc(Cc2nnc3ccc(N[C@@H]4CCOC4)nn23)cc1 [Compound 274]
< 100 nM		Oc1ccc(Cc2nnc3ccc(NC4CC5CCC4C5)nn23)cc1 (stereo not shown) [Compound 275]
100 to 2000 nM		CC(C)Nc1ccc2nnc(Cc3ccc(O)cc3)n2n1 [Compound 276]
100 to 2000 nM		Oc1ccc(Cc2nnc3ccc(NCc4ccccc4)nn23)cc1 [Compound 277]
100 to 2000 nM		CCC(C)Nc1ccc2nnc(Cc3ccc(O)cc3)n2n1 (stereo not shown) [Compound 278]
100 to 2000 nM		CC(C)CC(C)Nc1ccc2nnc(Cc3ccc(O)cc3)n2n1 (stereo not shown) [Compound 279]
100 to 2000 nM		CCCC(C)Nc1ccc2nnc(Cc3ccc(O)cc3)n2n1 (stereo not shown) [Compound 280]
100 to 2000 nM		CCC(CC)Nc1ccc2nnc(Cc3ccc(O)cc3)n2n1 [Compound 281]
100 to 2000 nM		CC(C)C(CO)Nc1ccc2nnc(Cc3ccc(O)cc3)n2n1 (stereo not shown) [Compound 282]
100 to 2000 nM		CN1CCC(Nc2ccc3nnc(Cc4ccc(O)cc4)n3n2)CC1 [Compound 283]
< 100 nM		CC1CCCC(Nc2ccc3nnc(Cc4ccc(O)cc4)n3n2)C1 (stereo not shown) [Compound 284]
< 100 nM		COc1ccc(Cc2nnc3ccc(Nc4cccc(F)c4)nn23)cc1 [Compound 285]
< 100 nM		Fc1cccc(Nc2ccc3nnc(Cc4ccc5c(c4)OCO5)n3n2)c1 [Compound 286]
	< 100 nM	COc1ccc(Cc2nnc3ccc(Nc4cccc(C#N)c4)nn23)cc1 [Compound 287]
	< 100 nM	CCc1cccc(Nc2ccc3nnc(Cc4ccc(O)cc4)n3n2)c1 [Compound 288]
	100 to 2000 nM	CCc1cccc(Nc2ccc3nnc(Cc4ccc(O)c(F)c4)n3n2)c1 [Compound 289]
	100 to 2000 nM	CCc1cccc(Nc2ccc3nnc(Cc4ccc(O)c(Cl)c4)n3n2)c1 [Compound 290]
